Measured values from ChEMBL document CHEMBL2203260, “Riccardin C derivatives as anti-MRSA agents: structure-activity relationship of a series of hydroxylated bis(bibenzyl)s” (2012).
Values after ≈ are worked out from the molar mass of the structure shown.

Experiments:
Staphylococcus aureus [1] = assay: Antibacterial activity against methicillin-resistant Staphylococcus aureus OM481 by two-fold liquid microdilution method; type: functional
Staphylococcus aureus [2] = assay: Antibacterial activity against methicillin-resistant Staphylococcus aureus OM584 by two-fold liquid microdilution method; type: functional

## Oc1ccccc1Oc1ccccc1
Staphylococcus aureus [1]
  MIC: 6.25 µg/mL (≈ 33.6 µM)
Staphylococcus aureus [2]
  MIC: 6.25 µg/mL (≈ 33.6 µM)

## COc1ccc2c(c1)CCc1ccc(cc1)Oc1cccc(c1)CCc1ccc-2cc1
Staphylococcus aureus [1]
  MIC: > 100 µg/mL
Staphylococcus aureus [2]
  MIC: > 100 µg/mL

## Oc1ccc2c(c1)CCc1ccc(cc1)Oc1cccc(c1)CCc1ccc-2cc1
Staphylococcus aureus [1]
  MIC: 1.6 µg/mL (≈ 4.08 µM)
Staphylococcus aureus [2]
  MIC: > 100 µg/mL

## Oc1ccc2c(c1)CCc1ccc(c(O)c1)Oc1cc(ccc1O)CCc1ccc-2c(O)c1
Staphylococcus aureus [1]
  MIC: 16 µg/mL (≈ 36.3 µM)
Staphylococcus aureus [2]
  MIC: 16 µg/mL (≈ 36.3 µM)

## Oc1ccc2c(c1)CCc1ccc(cc1O)Oc1cc(ccc1O)CCc1ccc-2c(O)c1
Staphylococcus aureus [1]
  MIC: 8 µg/mL (≈ 18.2 µM)
Staphylococcus aureus [2]
  MIC: 8 µg/mL (≈ 18.2 µM)

## Oc1ccc(-c2ccccc2O)cc1
Staphylococcus aureus [1]
  MIC: > 100 µg/mL
Staphylococcus aureus [2]
  MIC: > 100 µg/mL

## COc1cc2ccc1-c1ccccc1CCc1ccc(cc1)Oc1cccc(c1)CC2
Staphylococcus aureus [1]
  MIC: > 100 µg/mL
Staphylococcus aureus [2]
  MIC: > 100 µg/mL

## COc1ccc2cc1Oc1ccc(cc1)CCc1ccccc1-c1ccc(cc1)CC2
Staphylococcus aureus [1]
  MIC: > 100 µg/mL
Staphylococcus aureus [2]
  MIC: > 100 µg/mL

## Oc1ccc2c(c1)CCc1ccc(cc1)Oc1cc(ccc1O)CCc1ccc-2cc1
Staphylococcus aureus [1]
  MIC: 3.2 µg/mL (≈ 7.83 µM)
Staphylococcus aureus [2]
  MIC: 3.2 µg/mL (≈ 7.83 µM)

## Oc1ccc2cc1Oc1ccc(cc1)CCc1ccccc1-c1ccc(cc1O)CC2
Staphylococcus aureus [1]
  MIC: 3.2 µg/mL (≈ 7.83 µM)
Staphylococcus aureus [2]
  MIC: 3.2 µg/mL (≈ 7.83 µM)

## Oc1ccc2c(c1)CCc1ccc(cc1)Oc1cccc(c1)CCc1ccc-2c(O)c1
Staphylococcus aureus [1]
  MIC: 3.2 µg/mL (≈ 7.83 µM)
Staphylococcus aureus [2]
  MIC: 3.2 µg/mL (≈ 7.83 µM)

## Oc1cc2ccc1-c1ccccc1CCc1ccc(cc1)Oc1cccc(c1)CC2
Staphylococcus aureus [1]
  MIC: 3.2 µg/mL (≈ 8.15 µM)
Staphylococcus aureus [2]
  MIC: > 100 µg/mL

## Oc1ccc2cc1Oc1ccc(cc1)CCc1ccccc1-c1ccc(cc1)CC2
Staphylococcus aureus [1]
  MIC: > 100 µg/mL
Staphylococcus aureus [2]
  MIC: > 100 µg/mL

## CC(=O)NC[C@H]1CN(c2ccc(N3CCOCC3)c(F)c2)C(=O)O1 [LINEZOLID]
Staphylococcus aureus [1]
  MIC: 1 µg/mL (≈ 2.96 µM)
Staphylococcus aureus [2]
  MIC: 1 µg/mL (≈ 2.96 µM)

## Oc1ccc(CCc2cccc(O)c2)cc1 [LUNULARIN]
Staphylococcus aureus [1]
  MIC: > 100 µg/mL
Staphylococcus aureus [2]
  MIC: > 100 µg/mL

## Oc1ccc2c(c1)CCc1ccc(cc1)Oc1cc(ccc1O)CCc1ccc-2c(O)c1 [RICCARDI C]
Staphylococcus aureus [1]
  MIC: 3.2 µg/mL (≈ 7.54 µM)
Staphylococcus aureus [2]
  MIC: 3.2 µg/mL (≈ 7.54 µM)
